Assay: logP determination by HPLC on a reversed-phase column (C18), EEC Directive 79/831 Annex V.A8
Format: physicochemical
Conditions: HPLC on reversed-phase column (C18)

Point of comparison: `CN(C(=O)c1cc(-c2cnn(-c3c(Cl)cc(C(F)(C(F)(F)F)C(F)(F)F)cc3OC(F)F)c2)cnc1Cl)C1CC1` [I-T3-217], “log P” value 4.2. Against it:
- CCS(=O)(=O)c1cc(C(F)(F)F)cc(Cl)c1-n1cc(-c2ccc(Cl)c(C(=O)NC3(C#N)CC3)c2)cn1 [I-T3-183] — lower, 3.1
- O=C(NC1CC1)c1cc(-c2cnn(-c3c(F)cc(C(F)(F)F)cc3Cl)c2)ccc1Cl [I-T3-186] — lower, 3.6
- N#CC1(NC(=O)c2cc(-c3cnn(-c4c(F)cc(C(F)(F)F)cc4Cl)c3)ccc2Cl)CC1 [I-T3-187] — lower, 3.3
- N#CC1(NC(=O)c2cc(-c3cnn(-c4c(F)c(F)c(C(F)(F)F)c(F)c4F)c3)ccc2Cl)CC1 [I-T3-188] — lower, 3.4
- CCS(=O)(=O)c1cc(C(F)(F)F)cc(C#N)c1-n1cc(-c2ccc(Cl)c(C(=O)NC3(C#N)CC3)c2)cn1 [I-T3-190] — lower, 2.9
- CCSc1cc(C(F)(C(F)(F)F)C(F)(F)F)cc(SCC)c1-n1cc(-c2ccc(Cl)c(C(=O)NC3(C#N)CC3)c2)cn1 [I-T3-191] — higher, 4.7
- CCSc1cc(C(F)(C(F)(F)F)C(F)(F)F)cc(Cl)c1-n1cc(-c2ccc(Cl)c(C(=O)NC3(C#N)CC3)c2)cn1 [I-T3-192] — higher, 4.5
- O=C(NC1CC1)c1cc(-c2cnn(-c3c(Cl)cc(C(F)(C(F)(F)F)C(F)(F)F)cc3C(F)F)c2)ccc1Cl [I-T3-193] — higher, 4.4
- NC(=O)C1(NC(=O)c2cc(-c3cnn(-c4c(F)c(F)c(C(F)(F)F)c(F)c4F)c3)ccc2Cl)CC1 [I-T3-194] — lower, 2.8
- CC[S+]([O-])c1cc(C(F)(C(F)(F)F)C(F)(F)F)cc(Cl)c1-n1cc(-c2ccc(Cl)c(C(=O)NC3(C#N)CC3)c2)cn1 (centres unmarked) [I-T3-195] — lower, 3.8
- Cc1cc(C(F)(C(F)(F)F)C(F)(F)F)cc(C(F)(F)F)c1-n1cc(-c2cnc(Cl)c(C(=O)NCC3(C#N)CC3)c2)cn1 [I-T3-197] — lower, 4.0
- CCS(=O)(=O)c1cc(C(F)(C(F)(F)F)C(F)(F)F)cc(S(=O)(=O)CC)c1-n1cc(-c2ccc(Cl)c(C(=O)NC3(C#N)CC3)c2)cn1 [I-T3-198] — lower, 3.7
- CCS(=O)(=O)c1cc(C(F)(C(F)(F)F)C(F)(F)F)cc(Cl)c1-n1cc(-c2ccc(Cl)c(C(=O)NC3(C#N)CC3)c2)cn1 [I-T3-201] — lower, 4.0
- CCSc1cc(C(F)(C(F)(F)F)C(F)(F)F)cc(C)c1-n1cc(-c2ccc(Cl)c(C(=O)NC3(C#N)CC3)c2)cn1 [I-T3-202] — higher, 4.5
- CCSc1cc(C(F)(C(F)(F)F)C(F)(F)F)cc(C)c1-n1cc(-c2ccc(Cl)c(C(=O)NC3CC3)c2)cn1 [I-T3-203] — higher, 4.6
- CN(C(=O)c1cc(-c2cnn(-c3c(Cl)cc(C(F)(C(F)(F)F)C(F)(F)F)cc3C#N)c2)cnc1Cl)C1CC1 [I-T3-204] — lower, 3.9
- N#Cc1cc(C(F)(C(F)(F)F)C(F)(F)F)cc(Cl)c1-n1cc(-c2cnc(Cl)c(C(=O)NC3CC3)c2)cn1 [I-T3-205] — lower, 3.5
- CC[S+]([O-])c1cc(C(F)(C(F)(F)F)C(F)(F)F)cc(C)c1-n1cc(-c2ccc(Cl)c(C(=O)NC3(C#N)CC3)c2)cn1 (centres unmarked) [I-T3-206] — lower, 3.6
- N#Cc1cc(C(F)(C(F)(F)F)C(F)(F)F)cc(Cl)c1-n1cc(-c2cnc(Cl)c(C(=O)NC3(C#N)CC3)c2)cn1 [I-T3-207] — lower, 3.5
- CN(C(=O)c1cc(-c2cnn(-c3c(Cl)cc(C(F)(C(F)(F)F)C(F)(F)F)cc3OC(F)(F)F)c2)cnc1Cl)C1CC1 [I-T3-208] — higher, 4.6
- CCS(=O)(=O)c1cc(C(F)(C(F)(F)F)C(F)(F)F)cc(C)c1-n1cc(-c2ccc(Cl)c(C(=O)NC3(C#N)CC3)c2)cn1 [I-T3-209] — lower, 3.8
- CCS(=O)(=O)c1cc(C(F)(C(F)(F)F)C(F)(F)F)cc(C)c1-n1cc(-c2ccc(Cl)c(C(=O)NC3CC3)c2)cn1 [I-T3-210] — lower, 3.9
- CCOc1cc(C(F)(C(F)(F)F)C(F)(F)F)cc(OCC)c1-n1cc(-c2cnc(Cl)c(C(=O)N(C)C3CC3)c2)cn1 [I-T3-211] — higher, 4.7
- N#CC1(NC(=O)c2cc(-c3cnn(-c4c(Cl)cc(C(F)(C(F)(F)F)C(F)(F)F)cc4I)c3)ccc2Cl)CC1 [I-T3-212] — within 0.2 log units, 4.3
- O=C(NC1CC1)c1cc(-c2cnn(-c3c(Cl)cc(C(F)(C(F)(F)F)C(F)(F)F)cc3I)c2)ccc1Cl [I-T3-213] — higher, 4.4
- O=C(NC1CC1)c1cc(-c2cnn(-c3c(Cl)cc(C(F)(C(F)(F)F)C(F)(F)F)cc3OC(F)F)c2)ccc1Cl [I-T3-214] — within 0.2 log units, 4.3
- N#CC1(NC(=O)c2cc(-c3cnn(-c4c(Cl)cc(C(F)(C(F)(F)F)C(F)(F)F)cc4OC(F)F)c3)ccc2Cl)CC1 [I-T3-215] — within 0.2 log units, 4.1
- CN(C(=O)c1cc(-c2cnn(-c3c(Cl)cc(C(F)(C(F)(F)F)C(F)(F)F)cc3OC(F)F)c2)ccc1Cl)C1CC1 [I-T3-216] — higher, 4.7
- N#CC1(NC(=O)c2cc(-c3cnn(-c4c(Cl)cc(C(F)(C(F)(F)F)C(F)(F)F)cc4OC(F)F)c3)cnc2Cl)CC1 [I-T3-218] — lower, 3.7
- CN(C(=O)c1cc(-c2cnn(-c3c(Cl)cc(C(F)(C(F)(F)F)C(F)(F)F)cc3OC(F)(F)F)c2)ccc1Cl)C1CC1 [I-T3-219] — higher, 5.1
- CN(C(=O)c1cc(-c2cnn(-c3c(Cl)cc(C(O)(C(F)(F)F)C(F)(F)F)cc3Cl)c2)cnc1Cl)C1CC1 [I-T3-220] — lower, 3.4

Same assay, conditions: HPLC-MS method a), Table I-T3

Point of comparison: `Cc1cc(C(F)(C(F)(F)F)C(F)(F)F)cc(C)c1-n1cc(-c2cc(C(=O)NC3CC3)c(Cl)cc2F)cn1` [I-T3-14], “logP^a)” value 4.5. Against it:
- N#CC1(NC(=O)c2cccc(-c3cnn(-c4c(Cl)cc(C(F)(C(F)(F)F)C(F)(F)F)cc4Cl)c3)c2F)CC1 [I-T3-22] — lower, 4.1

Same assay, conditions: HPLC-MS, reversed-phase column (C18)

Point of comparison: `CSc1cc(C(F)(C(F)(F)F)C(F)(F)F)cnc1-n1cc(-c2ccc(Cl)c(C(=O)NC3(C#N)CC3)c2)cn1` [I-T3-166], “log P” value 4.3. Against it:
- O=C(NC1CC1)c1cccc(-c2cnn(-c3ncc(C(F)(F)F)cc3Cl)c2)c1 [I-T3-122] — lower, 3.0
- CN(C(=O)c1cc(-c2cnn(-c3ccc(C(F)(C(F)(F)F)C(F)(F)F)cc3C(F)(F)F)c2)ccc1Cl)C1CC1 [I-T3-134] — higher, 4.9
- O=C(NC1CC1)c1cc(-c2cnn(-c3ncc(C(F)(C(F)(F)F)C(F)(F)F)cc3Cl)c2)ccc1Cl [I-T3-152] — lower, 4.1
- CC[S+]([O-])c1cc(C(F)(C(F)(F)F)C(F)(F)F)cnc1-n1cc(-c2ccc(Cl)c(C(=O)NC3(C#N)CC3)c2)cn1 (centres unmarked) [I-T3-153] — lower, 3.7
- NC(=S)C1(NC(=O)c2cc(-c3cnn(-c4c(Cl)cc(C(F)(C(F)(F)F)C(F)(F)F)cc4C(F)(F)F)c3)cnc2Cl)CC1 [I-T3-159] — lower, 3.8
- N#CC1(NC(=O)c2cc(-c3cnn(-c4c(Cl)cc(C(F)(F)F)cc4[N+](=O)[O-])c3)ccc2Cl)CC1 [I-T3-169] — lower, 3.2
- CCSc1cc(C(F)(F)F)cc(Cl)c1-n1cc(-c2ccc(Cl)c(C(=O)NC3(C#N)CC3)c2)cn1 [I-T3-170] — lower, 3.7
- N#CC1(NC(=O)c2cc(-c3cnn(-c4ncc(C(F)(C(F)(F)F)C(F)(F)F)cc4SCC(F)(F)F)c3)ccc2Cl)CC1 [I-T3-171] — higher, 4.5
- CCSc1cc(C(F)(F)F)cc(Cl)c1-n1cc(-c2ccc(Cl)c(C(=O)NC3CC3)c2)cn1 [I-T3-172] — lower, 3.9
- N#Cc1cc(C(F)(F)F)cc(Cl)c1-n1cc(-c2ccc(Cl)c(C(=O)NC3CC3)c2)cn1 [I-T3-174] — lower, 3.1
- CCSc1cc(C(F)(F)F)cc(C#N)c1-n1cc(-c2ccc(Cl)c(C(=O)NC3(C#N)CC3)c2)cn1 [I-T3-177] — lower, 3.4
- CCS(=O)(=O)c1cc(C(F)(F)F)cc(Cl)c1-n1cc(-c2ccc(Cl)c(C(=O)NC3CC3)c2)cn1 [I-T3-178] — lower, 3.2
- CC[S+]([O-])c1cc(C(F)(F)F)cc(Cl)c1-n1cc(-c2ccc(Cl)c(C(=O)NC3CC3)c2)cn1 (centres unmarked) [I-T3-179] — lower, 3.0
- CCS(=O)(=O)c1cc(C(F)(F)F)cc(C#N)c1-n1cc(-c2ccc(Cl)c(C(=O)NC3CC3)c2)cn1 [I-T3-180] — lower, 2.8
- CC[S+]([O-])c1cc(C(F)(F)F)cc(C#N)c1-n1cc(-c2ccc(Cl)c(C(=O)NC3CC3)c2)cn1 (centres unmarked) [I-T3-181] — lower, 2.7

Same assay, conditions: reversed-phase HPLC column (C18), HPLC, reversed-phase C18, acetonitrile/water with formic acid, 55° C.; read-out: logP

Point of comparison: `CCc1cc(C(F)(C(F)(F)F)C(F)(F)F)cc(Cl)c1N` [2-chloro-6-ethyl-4-heptafluoroisopropylaniline], chromatographic logP 4.67. Against it:
- NNc1c(Cl)cc(C(O)(C(F)(F)F)C(F)(F)F)cc1Cl [2-(3,5-dichloro-4-hydrazinophenyl)-1,1,1,3,3,3-hexafluoropropan-2-ol] — lower, 1.92
- FC(F)(F)C(F)(c1cnc(-n2cc(Br)cn2)c(Cl)c1)C(F)(F)F [2-(4-bromo-1H-pyrazol-1-yl)-3-chloro-5-(1,1,1,2,3,3,3-heptafluoropropan-2-yl)pyridine] — within 0.2 log units, 4.74
- Cc1cc(C(F)(C(F)(F)F)C(F)(F)F)cc(Br)c1N [2-bromo-6-methyl-4-heptafluoroisopropylaniline] — lower, 4.38
- O=C(NC1CC1)c1cc(-c2cnn(-c3ncc(C(F)(C(F)(F)F)C(F)(F)F)cc3Cl)c2)ccc1Cl [2-chloro-5-{1-[3-chloro-5-(1,1,1,2,3,3,3-heptafluoropropan-2-yl)pyridin-2-yl]-1H-pyrazol-4-yl}-N-cyclopropylbenzamide] — lower, 4.08
- Cc1cc(C(F)(C(F)(F)F)C(F)(F)F)cc(C(F)(F)F)c1N [4-heptafluoroisopropyl-2-methyl-6-trifluoromethylaniline] — the same, 4.67
- CCSc1cc(C(F)(C(F)(F)F)C(F)(F)F)cnc1-n1cc(-c2ccc(Cl)c(C(=O)NC3CC3)c2)cn1 [I-T3-156, 2-Chloro-N-cyclopropyl-5-{1-[3-(ethylsulphanyl)-5-(1,1,1,2,3,3,3-heptafluoropropan-2-yl)pyridin-2-yl]-1H-pyrazol-4-yl}benzamide] — within 0.2 log units, 4.69
- CC[S+]([O-])c1cc(C(F)(C(F)(F)F)C(F)(F)F)cnc1-n1cc(-c2ccc(Cl)c(C(=O)NC3CC3)c2)cn1 (centres unmarked) [I-T3-157, 2-Chloro-N-cyclopropyl-5-{1-[3-(ethylsulphinyl)-5-(1,1,1,2,3,3,3-heptafluoropropan-2-yl)pyridin-2-yl]-1H-pyrazol-4-yl}benzamide] — lower, 3.79

Same assay, conditions: reversed-phase HPLC column (C18), HPLC-MS method a), reversed-phase column (C18); read-out: logP^a)

Point of comparison: `CC[S+]([O-])c1cc(C(F)(C(F)(F)F)C(F)(F)F)cnc1-n1cc(-c2ccc(Cl)c(C(=O)NC3CC3)c2)cn1` (centres unmarked) [I-T3-157, 2-Chloro-N-cyclopropyl-5-{1-[3-(ethylsulphinyl)-5-(1,1,1,2,3,3,3-heptafluoropropan-2-yl)pyridin-2-yl]-1H-pyrazol-4-yl}benzamide], chromatographic logP 3.8. Against it:
- CCSc1cc(C(F)(C(F)(F)F)C(F)(F)F)cnc1-n1cc(-c2ccc(Cl)c(C(=O)NC3CC3)c2)cn1 [I-T3-156, 2-Chloro-N-cyclopropyl-5-{1-[3-(ethylsulphanyl)-5-(1,1,1,2,3,3,3-heptafluoropropan-2-yl)pyridin-2-yl]-1H-pyrazol-4-yl}benzamide] — higher, 4.7

Same assay, conditions: reversed-phase HPLC column (C18), HPLC-MS, reversed-phase column (C18); read-out: log P

Point of comparison: `CC[S+]([O-])c1cc(C(F)(C(F)(F)F)C(F)(F)F)cnc1-n1cc(-c2ccc(Cl)c(C(=O)NC3CC3)c2)cn1` (centres unmarked) [I-T3-157, 2-Chloro-N-cyclopropyl-5-{1-[3-(ethylsulphinyl)-5-(1,1,1,2,3,3,3-heptafluoropropan-2-yl)pyridin-2-yl]-1H-pyrazol-4-yl}benzamide], chromatographic logP 3.8. Against it:
- CCSc1cc(C(F)(C(F)(F)F)C(F)(F)F)cnc1-n1cc(-c2ccc(Cl)c(C(=O)NC3CC3)c2)cn1 [I-T3-156, 2-Chloro-N-cyclopropyl-5-{1-[3-(ethylsulphanyl)-5-(1,1,1,2,3,3,3-heptafluoropropan-2-yl)pyridin-2-yl]-1H-pyrazol-4-yl}benzamide] — higher, 4.7

— patent publication US9758485B2, “Compounds for controlling arthropods” (priority 2013, dated 2017)
